From patent US4980343A, “Aminooxodihydroisoindoloquinazoline carcinostatic agents” (Bayer Aktiengesellschaft, priority 1989, dated 1990)
Converted amounts (≈) assume the structure as drawn. “Also recorded” adds a separate entry of the source. Structures can show the parent of a compound that is named as a salt.

How the values were obtained:
[1] = test system: E. coli Neumann; experiment: minimal inhibitory concentrations (MICs) by agar dilution method; assay type: cell-based
Protocol: The minimal inhibitory concentrations (MICs) were determined by agar dilution method. Series of agar plates with Iso-Sensitest agar (Oxoid) were prepared which contained the test substances at twofold increasing concentrations. The agar plates were inoculated by using a multipoint inoculator (Denley). For this purpose, overnight cultures of the bacterial test strains were diluted appropriately so that each inoculation point contained approx. 10^4 cells. The inoculated agar plates were incubated at 37° C. and bacterial growth was read after 20 hours.

[2] = stability of B in the presence of peptidases or human plasma; assay type: in vitro ADME; settings: not cleaved back to A
[3] = test system: E. coli Neumann; experiment: therapeutic efficacy: survival of female CF1 mice infected intraperitoneally with E. coli Neumann; assay type: in vivo; settings: for survival of the animals (number of 10 mice): single dose 30 min. after infection, until sixth day
Protocol: To measure the therapeutic efficacy, 10 female CF1 mice each group were infected by intraperitoneal injection of 3×10^7 cells of E. coli Neumann. For treatment, one single dose of drug was given intravenously 30 min. after the infection. The survival of the animals was recorded daily until the sixth day after infection: […]

[4] = solubility in water and water containing solvents; settings: for solubility: water
[5] = stability of 4, 6 and 12 in human plasma at 37° C.; assay type: in vitro ADME; settings: for hydrolysis to 1: human plasma; for half-life: plasma
Protocol: (§1) A solution of approximately 2.0 mg of 4, 6 or 12 in 100 μl of water was added to 2 ml of either human or mice plasma. The resulting solution was placed in water bath at 37° C. Samples were withdrawn at appropriate time intervals and proteins were precipitated with 250 μl of acetonitrile, vortexed for 30 sec., then centrifuged for 10 min at 2200 rpm. […] Apparent first-order rate constants were obtained by plotting the disappearance the derivatives 4, 6 or 12 versus time on semilogarithmic plot and the results are shown in table 12.

[6] = stability of 4, 6 and 12 in mice plasma at 37° C.; assay type: in vitro ADME; settings: for hydrolysis to 1: mice plasma; for kobs / half-life: mice, heparin; for half-life: mouse, plasma
Protocol: as §1

[7] = stability of 4, 6 or 12 in aqueous buffered solutions (μ = 0.15); assay type: physicochemical
Protocol: The hydrolysis of 4, 6 or 12 in aqueous buffered solutions at various pH and at an ionic strength of 0.15 (NaCl) were measured by analyzing aliquots at appropriate intervals using HPLC. In the HPLC analysis both the disappearance of 4, 6 or 12 and the appearance of 1 were monitored. Rate constants were calculated from the first-order plots of the disappearance of 4, 6 or 12 versus time.

[8] = hydrolysis of 14 and 4a in human plasma at 37.0° C.; assay type: in vitro ADME
Protocol: (§2) The hydrolysis of 14 in human plasma was studied. A solution containing 2.0 mg of 14 in 200 μl of water was mixed with 2 ml of human plasma (sodium citrate was used as anticoagulant). The resulting mixture was placed in water bath at 37.0° C. Samples were withdrawn at appropriate time intervals and proteins were precipitated with 250 μl of acetonitrile, vortexed for 30 sec, the centrifuged for 15 min at 2200 rpm. A 100 μl sample of the supernatent was mixed with 250 μl of H2 O and the resulting solution was analyzed by HPLC. […] The chemical hydrolysis of 14 (5.5×10^-5 M) in 0.05M phosphate buffer pH 7.4 and ionic strength of 0.15M (NaCl) at 37.0° C. was studied. Samples were withdrawn and analyzed at appropriate time intervals.

[9] = chemical hydrolysis of 14 in 0.05M phosphate buffer pH 7.4 at 37.0° C.; assay type: physicochemical; settings: 5.5×10^-5 M, 0.05M phosphate pH 7.4, ionic strength 0.15M (NaCl)
Protocol: as §2

[10] = Acetate (0.05M), 25° C., pH 5.0, initial conc. 0.024 (4, 12), 0.018 (6) mg/ml
[11] = Phosphate (0.05M), 37° C., pH 7.4, initial conc. 0.02 mg/ml
[12] = acetate buffer (0.05m), pH 5, Acetate (0.05M), 25° C., pH 5.0, initial conc. 0.024 (4, 12), 0.018 (6) mg/ml, 6 and 12 estimated values (*)
[13] = phosphate buffer (0.05m), pH 7.4, Phosphate (0.05M), 25° C., pH 7.4, initial conc. 0.02 mg/ml, 4 estimated value (*)
[14] = phosphate buffer (0.05m), pH 7.4, Phosphate (0.05M), 37° C., pH 7.4, initial conc. 0.02 mg/ml
[15] = water, pH 4.5, Water, 25° C., initial conc. 10.0 mg/ml, pH 4.5 (4), 4.31 (6), 4.54 (12), estimated values (*)
[16] = water, pH 5.9, Water, 25° C., initial conc. 0.1 mg/ml, pH 5.9 (4), 5.46 (6), 6.1 (12), estimated values (*)
[17] = Phosphate (0.05M), 25° C., pH 7.4, initial conc. 0.02 mg/ml
[18] = Water, 25° C., initial conc. 0.1 mg/ml, pH 5.46 (6), 6.1 (12)
[19] = Water, 25° C., initial conc. 10.0 mg/ml, pH 4.31 (6), 4.54 (12)
[20] = concentration of obtainable aqueous solutions, hydrochloric acid salts (Example 5)

Row | hydrolysis to 1 [5] | hydrolysis to 1 [6] | half-life [6] [h] | half-life [7, 12] [days] | half-life [7, 13] [days] | half-life [7, 14] [days] | half-life [7, 15] [days] | half-life [7, 16] [days] | Compound | kobs [6] [min⁻¹] | kobs [7, 10] [h⁻¹] | kobs [7, 11] [h⁻¹] | also measured
1 | – | – | – | – | – | – | – | – | CC(N)C(=O)N1CCN(c2cc3c(cc2F)c(=O)c(C(=O)O)cn3C2CC2)CC1 (centres unmarked) [B] | – | – | – | MIC ([1]; Escherichia coli, E. coli Neumann, agar dilution, Iso-Sensitest agar, 37° C., 20 hours): 0.5 µg/mL (≈ 1.24 µM); effectiveness against E. coli Neumann in vitro ([1]; in words): only poorly effective; stability in the presence of peptidases or human plasma [2]: stable; survival of the animals (number of 10 mice) ([3]; 0.06 mg/kg i.v.): 0; survival of the animals (number of 10 mice) ([3]; 0.25 mg/kg i.v.): 1; survival of the animals (number of 10 mice) ([3]; 0.5 mg/kg i.v.): 1; effectiveness against E. coli Neumann in vivo ([3]; in words): only poorly effective
2 | – | – | – | – | – | – | – | – | Nc1ccc2c(c1)CN1C(=O)c3ccccc3C1=N2 [Compound 1, aminooxodihydroisoindoloquinazoline] | – | – | – | solubility in water (in words) ([4]; water containing solvents): only poorly soluble; also recorded: nearly insoluble
3 | quantitative hydrolysis | quantitative hydrolysis | 0.355 | 17.8 | > 8.33 | 6.58 | > 20 | > 20 | C[C@H](N)C(=O)Nc1ccc2c(c1)CN1C(=O)c3ccccc3C1=N2 [Compound 4, N-l-alanyl-AQ-monohydrochloride] | 0.033 | 0.0016 | 0.0044 | kobs ([5]; human 1, citrate): 0.025 min⁻¹; kobs ([5]; human 2, citrate): 0.022 min⁻¹; half-life ([5]; human, human 1, citrate): 0.46 h; half-life ([5]; human, human 2, citrate): 0.512 h; solubility ([4]; solubility in water, hydrochloric acid salt, water (Example 5)): > 25 mg/mL
4 | – | – | – | – | – | – | – | – | C[C@H](N)C(=O)Nc1ccc2c(c1)CN1C(=O)c3ccccc3C1=N2 [Compound 4a, N-l-alanyl-AQ] | – | – | – | half-life ([8]; human plasma, FIG. 1, 4a formed from 14): ~0.333 h
5 | quantitative hydrolysis | quantitative hydrolysis | 0.623 | 26 | 7.03 | 3.36 | 198 | 47 | CC(C)C[C@H](N)C(=O)Nc1ccc2c(c1)CN1C(=O)c3ccccc3C1=N2 [Compound 6, N-l-leucine derivative of AQ] | 0.0185 | 0.0011 | 0.0086 | kobs ([5]; human, citrate): 0.0057 min⁻¹; half-life ([5]; human, citrate): 2.02 h; kobs [7, 17]: 0.00411 h⁻¹; kobs [7, 18]: 0.00061 h⁻¹; kobs [7, 19]: 0.000146 h⁻¹; solubility [4, 20]: > 25 mg/mL
6 | quantitative hydrolysis | quantitative hydrolysis | 2.43 | 25 | 11.2 | 2.8 | 108 | 37 | NCCCC[C@H](N)C(=O)Nc1ccc2c(c1)CN1C(=O)c3ccccc3C1=N2 [Compound 12, N-l-lysine dihydrochloride derivative of AQ] | 0.0048 | 0.00115 | 0.0103 | kobs ([5]; human, citrate): 0.005 min⁻¹; half-life ([5]; human, citrate): 2.31 h; kobs [7, 17]: 0.00258 h⁻¹; kobs [7, 18]: 0.00078 h⁻¹; kobs [7, 19]: 0.000267 h⁻¹; solubility [4, 20]: > 25 mg/mL; solubility ([4]; water solubility, dihydrochloride, freeze dried (Example 3)): > 20 mg/mL
7 | – | – | – | – | – | – | – | – | C[C@H](NC(=O)CN)C(=O)Nc1ccc2c(c1)CN1C(=O)c3ccccc3C1=N2 [Compound 14, L-Gly-Ala-derivative of AQ] | – | – | – | half-life at 55 µM [9]: 60 h; half-life ([8]; human plasma (citrate), 2.0 mg of 14 in 200 μl water + 2 ml plasma, read-out: half life of hydrolysis of 14 to 4a): 0.233 ± 0.0167 h
